Results: patent US9434822B2, “Block copolymer, micelle preparation, and anticancer agent containing the same as active ingredient” (Nippon Kayaku Kabushiki Kaisha, priority 2004, dated 2016)

Experiments:
[1] = system: Mouse colon cancer Colon 26 cells; assay: In vivo antitumor effect on Colon 26; conditions: i.v. 3 times at 4-day intervals, Day 11 after administration
Description: Mouse colon cancer Colon 26 cells were transplanted subcutaneously in the back of female CDF1 mouse, and after the volume of the tumor reached about 100 mm^3, the micelle preparation of Example 4, or paclitaxel alone as the control drug, was administered via a mouse caudal vein into the mouse 3 times at 4-day intervals, to examine the effect thereof on advanced cancer. The micelle preparation had been diluted with 5% glucose solution to form a solution containing paclitaxel at a concentration of 3 mg/mL. Paclitaxel for use as the sole regimen was dissolved in ethanol and mixed with an equal volume of Cremophor (manufactured by Sigma) to prepare a solution containing paclitaxel at a concentration of 30 mg/mL, and the resulting preparation was diluted with physiological saline to 3 mg/mL just before administration. The antitumor effect of each drug was judged in percentage (T/C %) of the average tumor volume of the group which was given the drug on Day 11 after administration, relative to the average tumor volume of the group which was not given the drug. A lower numerical value is indicative of higher effect.

[2] = Paclitaxel levels in mouse plasma; assay type: in vivo; conditions: female, intravenous, 50 mg/kg i.v., Colon 26-bearing CDF1 mice
Description: (§1) Each drug was prepared according to the same method as in Test Example 2 (in vivo antitumor effect on Colon 26). A micelle preparation containing paclitaxel, or paclitaxel alone, each at a dose level of 50 mg/kg, was administered via a mouse caudal vein into female CDF1 mouse transplanted with mouse colon cancer Colon 26 in the back, and after a predetermined time, whole blood was collected through an armpit artery. 0.01 mL of plasma obtained by centrifugation was deproteinized (3 times) with 0.2 mL of water and 1 mL of acetonitrile and then subjected to liquid/liquid extraction by adding 2 mL of t-butyl methyl ether. The organic layer was recovered, evaporated into dryness, dissolved in 0.4 mL of dissolving liquid for HPLC, and measured for its paclitaxel concentration by HPLC. Separately, the tumor was homogenized with 0.5% acetic acid to prepare 1% tumor homogenate, and 0.1 mL of 1% tumor homogenate was deproteinized (3 times) with 0.1 mL of water and 1 mL of acetonitrile and subjected to liquid/liquid extraction by adding 2 mL of t-butyl methyl ether. The organic layer was concentrated and dissolved in 0.4 mL of dissolving liquid for HPLC and measured for its paclitaxel concentration by HPLC.

[3] = Paclitaxel levels in mouse tumor; assay type: in vivo; conditions: female, CDF1, mouse, tumor (Colon 26), intravenous, 50 mg/kg i.v., Colon 26 tumor
Description: as §1

female CDF1 mice = assay: Observation of peripheral nerve damage to mice (stretch reflex); assay type: in vivo, mouse; conditions: 30 mg/kg in terms of paclitaxel, i.v. for 5 consecutive days, hind limb
Description: The micelle preparation of the present invention, or paclitaxel alone, was administered via a mouse caudal vein to female CDF1 mice for 5 consecutive days, and the stretch reflex of the mouse hind limb was observed as an indicator of the peripheral nerve damage caused by paclitaxel. Each drug was prepared in the same manner as in Test Example 2 (in vivo antitumor effect on Colon 26). The dose was 30 mg/kg in terms of paclitaxel.

- concentration at 0.083 h ([2]; 0.083 hours): 59300 ng/mL
- concentration at 0.5 h ([2]; 0.5 hours): 31900 ng/mL
- concentration at 2 h ([2]; 2 hours): 14800 ng/mL
- concentration at 6 h ([2]; 6 hours): 710 ng/mL
- concentration at 0.083 h ([3]; 0.083 hours): 7370 ng/mL
- concentration at 0.5 h ([3]; 0.5 hours): 10000 ng/mL
- concentration at 2 h ([3]; 2 hours): 12500 ng/mL
- concentration at 6 h ([3]; 6 hours): 5790 ng/mL
- concentration at 24 h ([3]; 24 hours): 1250 ng/mL
Structure (SMILES): CC(=O)O[C@H]1C(=O)[C@@]2(C)[C@H]([C@H](OC(=O)c3ccccc3)[C@]3(O)C[C@H](OC(=O)[C@H](O)[C@@H](NC(=O)c4ccccc4)c4ccccc4)C(C)=C1C3(C)C)[C@]1(OC(C)=O)CO[C@@H]1C[C@@H]2O [Paclitaxel alone, paclitaxel]
- T/C % (average tumor volume relative to group not given the drug) ([1]; dose 50 mg/kg): 81.6%
- T/C % (average tumor volume relative to group not given the drug) ([1]; dose 100 mg/kg): 52.6%
- Mice with loss of stretch reflex (female CDF1 mice): 3/3
- Mice with loss of stretch reflex (female CDF1 mice; listed as paclitaxel alone): recognized to lose stretch reflex in every mouse
